Laboratory results taken from the supplement of paper PMC11061612.

Legend:
Test in all cases: Bliss excess, mean over the matrix (fraction); higher = more synergy
[1] = tested on: HuP-T4 (Pancreatic Carcinoma)
Method in brief: (§1)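 Cell lines grown in DMEM/F12 or RPMI with 10% FBS were plated in 1536-well plates and held 24 hours at 37°C, 5% CO2 before 72 hours of exposure to two-drug dose matrices, with DMSO typically at 0.2%. CellTiter-Glo 2.0 luminescence gave viability, which was converted to inhibition. Vehicle wells were set to 0 and blank wells to 1. Combination Emax is the second-highest inhibition in the matrix, and Bliss excess is the observed combination effect minus the expected EA + EB − EA·EB, where EA and EB are the single-agent effects.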

[2] = tested on: COLO-205 (Colorectal Carcinoma)
Method in brief: as §1

[3] = tested on: Daoy (Other Solid Carcinomas)
Method in brief: as §1

[4] = tested on: CAL-148 (Breast Carcinoma)
Method in brief: as §1

HOS (Osteosarcoma) = tested on: HOS (Osteosarcoma)
Method in brief: as §1

[5] = tested on: HT-1376 (Bladder Carcinoma)
Method in brief: as §1

[6] = tested on: RO82-W-1 (Thyroid Gland Carcinoma)
Method in brief: as §1

[7] = tested on: DEL (T-Cell Non-Hodgkin's Lymphoma)
Method in brief: as §1

[8] = tested on: KP-1N (Pancreatic Carcinoma)
Method in brief: as §1

[9] = tested on: TCCSUP (Bladder Carcinoma)
Method in brief: as §1

[10] = tested on: LU-135 (Small Cell Lung Carcinoma)
Method in brief: as §1

[11] = tested on: UM-UC-3 (Bladder Carcinoma)
Method in brief: as §1

[12] = tested on: ME-1 (Acute Myeloid Leukemia)
Method in brief: as §1

[13] = tested on: Hs-578-T (Breast Carcinoma)
Method in brief: as §1

[14] = tested on: HCC1806 (Breast Carcinoma)
Method in brief: as §1

[15] = tested on: Ramos-2G6-4C10 (Burkitt's Lymphoma)
Method in brief: as §1

[16] = tested on: CCRF-CEM (T-Lymphoblastic Leukemia)
Method in brief: as §1

[17] = tested on: CaR-1 (Colorectal Carcinoma)
Method in brief: as §1

[18] = tested on: NCI-H2085 (Non-Small Cell Lung Carcinoma)
Method in brief: as §1

T98G (Glioblastoma) = tested on: T98G (Glioblastoma)
Method in brief: as §1

| SMILES | Bliss excess [1] | Bliss excess [2] | Bliss excess [3] | Bliss excess [4] | Bliss excess (HOS (Osteosarcoma)) | Bliss excess [5] | Bliss excess [6] | Bliss excess [7] | Bliss excess [8] | Bliss excess [9] | Bliss excess [10] | Bliss excess [11] | Bliss excess [12] | Bliss excess [13] | Bliss excess [14] | Bliss excess [15] | Bliss excess [16] | Bliss excess [17] | Bliss excess [18] | Bliss excess (T98G (Glioblastoma)) |
| --- | --- | --- | --- | --- | --- | --- | --- | --- | --- | --- | --- | --- | --- | --- | --- | --- | --- | --- | --- | --- |
| NC1(C(=O)N[C@@H](CCO)c2ccc(Cl)cc2)CCN(c2ncnc3[nH]ccc23)CC1 [Capivasertib] + COc1nnc2ccc(N3CCC(c4ccc(OCCN5CCN(C)C(=O)[C@H]5C)cc4)CC3)nn12 [AZD5153] (first compound max 10 µM, 7x7, partner max 1 µM) | -0.0315 | 0.0237 | 0.0494 | 0.0504 | 0.041 | -0.0317 | -0.0585 | -0.0363 | 0.0274 | 0.0311 | -0.005 | -0.0158 | -0.0161 | 0.06 | -0.003 | 0.0722 | 0.058 | 0.0378 | 0.044 | 0.0908 |
| CN(C)CCCOc1ccc(-c2ccc3ncc4c(c3c2)n(C2CCOCC2)c(=O)n4C)cn1 [AZD0156] + CCN(CCO)CCCOc1ccc2c(Nc3cc(CC(=O)Nc4cccc(F)c4)[nH]n3)ncnc2c1 [AZD2811] (first compound max 1 µM, 7x7, partner max 1 µM) | -0.005 | 0.0035 | 0.0069 | -0.0262 | -0.0186 | -0.0665 | -0.0556 | 0.117 | 0.0312 | -0.0589 | -0.0008 | -0.0079 | -0.0275 | -0.0708 | -0.003 | 0.0919 | 0.0045 | -0.0097 | -0.0194 | -0.0655 |
| COc1nnc2ccc(N3CCC(c4ccc(OCCN5CCN(C)C(=O)[C@H]5C)cc4)CC3)nn12 [AZD5153] + CC1(C)CCC(CN2CCN(c3ccc(C(=O)NS(=O)(=O)c4ccc(NCC5CCOCC5)c([N+](=O)[O-])c4)c(Oc4cnc5[nH]ccc5c4)c3)CC2)=C(c2ccc(Cl)cc2)C1 [Venetoclax] (first compound max 1 µM, 7x7, partner max 1 µM) | -0.0457 | -0.0745 | -0.0568 | -0.0682 | -0.0508 | -0.0305 | -0.0712 | -0.0559 | -0.0714 | -0.0768 | -0.001 | -0.043 | 0.0529 | -0.0614 | -0.0513 | -0.0041 | -0.0742 | -0.0643 | -0.0655 | -0.0115 |
| Cc1cc2ncnn2cc1Nc1ncc2c(n1)n(C1CCOCC1)c(=O)n2C [AZD7648] + C[C@@H]1COCCN1C2=NC(=NC(=C2)C3(CC3)[S@](=N)(=O)C)C4=C5C=CNC5=NC=C4 [AZD6738] (first compound max 10 µM, 7x7, partner max 10 µM) | 0.0353 | 0.0195 | 0.0328 | 0.0532 | 0.0345 | 0.0176 | 0.0654 | 0.0052 | -0.0035 | 0.0311 | 0.0123 | 0.0223 | -0.0321 | -0.0744 | 0.014 | 0.0129 | 0.0206 | 0.0287 | 0.0007 | 0.0339 |
| C[C@@H](c1ccc2nccn2c1)n1nnc2ncc(-c3cnn(C)c3)nc21 [Savolitinib] + CC1(C)CCC(CN2CCN(c3ccc(C(=O)NS(=O)(=O)c4ccc(NCC5CCOCC5)c([N+](=O)[O-])c4)c(Oc4cnc5[nH]ccc5c4)c3)CC2)=C(c2ccc(Cl)cc2)C1 [Venetoclax] (first compound max 1 µM, 7x7, partner max 1 µM) | -0.0575 | -0.0675 | -0.0185 | -0.0359 | -0.0243 | -0.0443 | -0.0371 | -0.0385 | -0.0646 | -0.0551 | -0.0561 | -0.0574 | -0.0192 | -0.0363 | -0.0367 | -0.0183 | -0.0527 | -0.0617 | -0.0364 | -0.0064 |
| CN(C)CCCOc1ccc(-c2ccc3ncc4c(c3c2)n(C2CCOCC2)c(=O)n4C)cn1 [AZD0156] + C=CCn1c(=O)c2cnc(Nc3ccc(N4CCN(C)CC4)cc3)nc2n1-c1cccc(C(C)(C)O)n1 [AZD1775] (first compound max 1 µM, partner max 1 µM) | -0.022 | -0.0229 | -0.0151 | -0.0318 | -0.0196 | -0.134 | -0.119 | -0.0036 | -0.0207 | -0.0651 | 0.0024 | -0.007 | -0.0276 | -0.0457 | -0.0219 | 0.0365 | 0.0192 | -0.0445 | -0.0406 | -0.0598 |
| CN(CCO)CC[C@H](CSc1ccccc1)Nc1ccc(S(=O)(=O)NC(=O)c2ccc(N3CCC([C@@H](O)c4ccccc4-c4ccc(Cl)cc4)CC3)cc2)cc1S(=O)(=O)C(F)(F)F [AZD4320] + CCN(CCO)CCCOc1ccc2c(Nc3cc(CC(=O)Nc4cccc(F)c4)[nH]n3)ncnc2c1 [AZD2811] (first compound max 1 µM, 7x7, partner max 1 µM) | -0.0427 | -0.0154 | 0.0245 | -0.0027 | -0.0288 | 0.026 | 0.0032 | -0.124 | -0.0317 | -0.0194 | -0.0124 | 0.0325 | 0.0068 | 0.183 | -0.0127 | 0.18 | -0.0228 | -0.0753 | -0.0145 | 0.0346 |
| COc1cccc2c1C(=O)c1c(O)c3c(c(O)c1C2=O)C[C@@](O)(C(=O)CO)C[C@@H]3O[C@H]1C[C@H](N)[C@H](O)[C@H](C)O1 [Doxorubicin] + Cc1cc2ncnn2cc1Nc1ncc2c(n1)n(C1CCOCC1)c(=O)n2C [AZD7648] (first compound max 1 µM, 7x7, partner max 10 µM) | 0.0316 | -0.0041 | 0.0851 | 0.165 | 0.145 | -0.0544 | -0.0346 | 0.0935 | 0.0574 | 0.0282 | 0.0388 | 0.0688 | 0.027 | 0.0412 | 0.0499 | 0.0786 | 0.123 | 0.0309 | 0.0299 | 0.0257 |
| CCN(CCO)CCCOc1ccc2c(Nc3cc(CC(=O)Nc4cccc(F)c4)[nH]n3)ncnc2c1 [AZD2811] + C=CCn1c(=O)c2cnc(Nc3ccc(N4CCN(C)CC4)cc3)nc2n1-c1cccc(C(C)(C)O)n1 [AZD1775] (first compound max 1 µM, partner max 1 µM) | 0.0274 | 0.008 | 0.026 | -0.0165 | 0.0066 | -0.0947 | -0.063 | 0.0636 | 0.0124 | -0.0204 | -0.0346 | -0.0171 | -0.0812 | -0.0212 | 0.0012 | 0.0096 | 0.006 | -0.0165 | 0.0061 | -0.0167 |
| Cn1cnc2c(F)c(Nc3ccc(Br)cc3Cl)c(C(=O)NOCCO)cc21 [Selumetinib] + CCN(CCO)CCCOc1ccc2c(Nc3cc(CC(=O)Nc4cccc(F)c4)[nH]n3)ncnc2c1 [AZD2811] (first compound max 10 µM, 7x7, partner max 1 µM) | -0.0161 | -0.0081 | 0.012 | -0.029 | -0.0192 | -0.0488 | 0.0016 | 0.263 | -0.0461 | -0.0822 | -0.0118 | -0.048 | -0.0296 | 0.0203 | -0.0063 | -0.0321 | 0.0007 | 0.0301 | -0.0589 | -0.0104 |
| Cn1cnc2c(F)c(Nc3ccc(Br)cc3Cl)c(C(=O)NOCCO)cc21 [Selumetinib] + C=CCn1c(=O)c2cnc(Nc3ccc(N4CCN(C)CC4)cc3)nc2n1-c1cccc(C(C)(C)O)n1 [AZD1775] (first compound max 10 µM, partner max 1 µM) | 0.0161 | -0.0256 | -0.0443 | -0.0543 | -0.0713 | -0.0093 | -0.0769 | -0.043 | -0.0298 | -0.0432 | -0.0337 | -0.0187 | -0.0255 | -0.0423 | 0.0042 | -0.0956 | 0.0378 | -0.0218 | -0.0751 | -0.0395 |
| CN(C)CCCOc1ccc(-c2ccc3ncc4c(c3c2)n(C2CCOCC2)c(=O)n4C)cn1 [AZD0156] + O=C(c1cc(Cc2n[nH]c(=O)c3ccccc23)ccc1F)N1CCN(C(=O)C2CC2)CC1 [Olaparib] (first compound max 3 µM, partner max 3 µM) | 0.125 | 0.125 | 0.0714 | 0.0072 | 0.046 | -0.0417 | -0.0299 | 0.312 | -0.0043 | 0.0405 | 0.0632 | 0.0739 | -0.0065 | 0.0937 | 0.191 | 0.0928 | 0.158 | -0.0014 | 0.0267 | -0.0085 |
| COc1nnc2ccc(N3CCC(c4ccc(OCCN5CCN(C)C(=O)[C@H]5C)cc4)CC3)nn12 [AZD5153] + CN(CC[C@H](CSC1=CC=CC=C1)NC2=C(C=C(C=C2)S(=O)(=O)NC(=O)C3=CC=C(C=C3)N4CCC(CC4)[C@H](C5=CC=CC=C5C6=CC=C(C=C6)Cl)O)S(=O)(=O)C(F)(F)F)CCO [AZD4320] (first compound max 1 µM, 7x7, partner max 1 µM) | 0.0267 | 0.0335 | 0.113 |  |  |  |  | 0.0204 | -0.0004 | 0.0033 | 0.0221 |  |  |  | 0.0257 |  |  |  |  |  |
| CC(=O)c1c(C)c2cnc(Nc3ccc(N4CCNCC4)cn3)nc2n(C2CCCC2)c1=O [Palbociclib] + CN(CC[C@H](CSC1=CC=CC=C1)NC2=C(C=C(C=C2)S(=O)(=O)NC(=O)C3=CC=C(C=C3)N4CCC(CC4)[C@H](C5=CC=CC=C5C6=CC=C(C=C6)Cl)O)S(=O)(=O)C(F)(F)F)CCO [AZD4320] (first compound max 10 µM, 7x7, partner max 1 µM) | -0.0026 | -0.0497 | 0.0118 |  |  |  |  | -0.0135 | -0.0305 | -0.0607 | 0.0316 |  |  |  | -0.0398 |  |  |  |  |  |
| C[C@@H](c1ccc2nccn2c1)n1nnc2ncc(-c3cnn(C)c3)nc21 [Savolitinib] + CN(CC[C@H](CSC1=CC=CC=C1)NC2=C(C=C(C=C2)S(=O)(=O)NC(=O)C3=CC=C(C=C3)N4CCC(CC4)[C@H](C5=CC=CC=C5C6=CC=C(C=C6)Cl)O)S(=O)(=O)C(F)(F)F)CCO [AZD4320] (first compound max 1 µM, 7x7, partner max 1 µM) | -0.0544 | -0.043 | -0.0547 |  |  |  |  | -0.0318 | -0.0755 | -0.0469 | 0.0057 |  |  |  | -0.0031 |  |  |  |  |  |
